Source: US12012409B2, “Bicyclic heterocycles as FGFR inhibitors” (Incyte Corporation, priority 2020, dated 2024)

Experiments:
Format in all cases: biochemical
Conditions in all cases: wild-type un-phosphorylated protein; pre-incubated for 4 hours; ATP near or below Km
[1] = molecular target: wild-type un-phosphorylated FGFR2 (Homo sapiens, UniProt P21802); experiment: FGFR Enzymatic Assay (FRET peptide phosphorylation), FGFR2
Protocol: (§1) The inhibitor potency of the exemplified compounds was determined in an enzyme discontinuous assay that measures peptide phosphorylation using FRET measurements to detect product formation. Inhibitors were serially diluted in DMSO and a volume of 0.2 μL was transferred to the wells of a 384-well plate. […] Appropriate controls (enzyme blank and enzyme with no inhibitor) were included on the plate. […] The ATP Km values were pre-determined in a separate series of experiments. […] The plate was allowed to equilibrate for ˜10 minutes at ambient temperature before scanning on a PheraStar plate reader (BMG Labtech) instrument.
(§2) Either GraphPad prism or XLfit was used to analyze the data. The IC50 values were derived by fitting the data to a four parameter logistic equation producing a sigmoidal dose-response curve with a variable Hill coefficient. Prism equation: Y=Bottom+(Top−Bottom)/(1+10^((LogIC50−X)*Hill slope)); XLfit equation: Y=(A+((B−A)/(1+((X/C)^D)))) where X is the logarithm of inhibitor concentration and Y is the response.
The data in Table 1 was measured in wild-type un-phosphorylated FGFR1, FGFR2, FGFR3 and FGFR4 protein.

[2] = molecular target: wild-type un-phosphorylated FGFR1 (Homo sapiens, UniProt P11362); experiment: FGFR Enzymatic Assay (FRET peptide phosphorylation), FGFR1
Sequence of wild-type un-phosphorylated FGFR1 (P11362 22-822): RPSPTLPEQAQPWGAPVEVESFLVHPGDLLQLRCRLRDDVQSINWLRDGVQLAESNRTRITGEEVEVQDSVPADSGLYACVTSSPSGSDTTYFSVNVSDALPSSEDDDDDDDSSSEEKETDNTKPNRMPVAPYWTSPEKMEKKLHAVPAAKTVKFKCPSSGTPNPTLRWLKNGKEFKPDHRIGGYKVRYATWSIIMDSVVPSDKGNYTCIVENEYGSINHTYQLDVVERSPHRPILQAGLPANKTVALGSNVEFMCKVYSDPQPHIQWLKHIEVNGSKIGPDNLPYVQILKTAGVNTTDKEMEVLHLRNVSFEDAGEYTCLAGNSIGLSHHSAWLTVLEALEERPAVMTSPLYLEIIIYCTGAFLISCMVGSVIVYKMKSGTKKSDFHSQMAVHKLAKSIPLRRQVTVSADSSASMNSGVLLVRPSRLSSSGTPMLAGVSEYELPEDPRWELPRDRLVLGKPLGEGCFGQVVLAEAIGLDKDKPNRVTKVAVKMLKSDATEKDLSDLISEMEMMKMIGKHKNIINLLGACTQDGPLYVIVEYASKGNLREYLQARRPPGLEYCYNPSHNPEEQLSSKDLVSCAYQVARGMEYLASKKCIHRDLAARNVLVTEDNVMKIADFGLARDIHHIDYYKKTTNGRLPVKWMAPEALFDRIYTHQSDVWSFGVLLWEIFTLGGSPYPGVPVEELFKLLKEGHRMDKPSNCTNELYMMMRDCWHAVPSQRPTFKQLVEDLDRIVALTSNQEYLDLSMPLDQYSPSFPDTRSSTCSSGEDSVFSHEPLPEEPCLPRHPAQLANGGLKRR
Protocol: as §1, §2

[3] = molecular target: wild-type un-phosphorylated FGFR3 (Homo sapiens, UniProt P22607); experiment: FGFR Enzymatic Assay (FRET peptide phosphorylation), FGFR3
Sequence of wild-type un-phosphorylated FGFR3 (P22607 23-806): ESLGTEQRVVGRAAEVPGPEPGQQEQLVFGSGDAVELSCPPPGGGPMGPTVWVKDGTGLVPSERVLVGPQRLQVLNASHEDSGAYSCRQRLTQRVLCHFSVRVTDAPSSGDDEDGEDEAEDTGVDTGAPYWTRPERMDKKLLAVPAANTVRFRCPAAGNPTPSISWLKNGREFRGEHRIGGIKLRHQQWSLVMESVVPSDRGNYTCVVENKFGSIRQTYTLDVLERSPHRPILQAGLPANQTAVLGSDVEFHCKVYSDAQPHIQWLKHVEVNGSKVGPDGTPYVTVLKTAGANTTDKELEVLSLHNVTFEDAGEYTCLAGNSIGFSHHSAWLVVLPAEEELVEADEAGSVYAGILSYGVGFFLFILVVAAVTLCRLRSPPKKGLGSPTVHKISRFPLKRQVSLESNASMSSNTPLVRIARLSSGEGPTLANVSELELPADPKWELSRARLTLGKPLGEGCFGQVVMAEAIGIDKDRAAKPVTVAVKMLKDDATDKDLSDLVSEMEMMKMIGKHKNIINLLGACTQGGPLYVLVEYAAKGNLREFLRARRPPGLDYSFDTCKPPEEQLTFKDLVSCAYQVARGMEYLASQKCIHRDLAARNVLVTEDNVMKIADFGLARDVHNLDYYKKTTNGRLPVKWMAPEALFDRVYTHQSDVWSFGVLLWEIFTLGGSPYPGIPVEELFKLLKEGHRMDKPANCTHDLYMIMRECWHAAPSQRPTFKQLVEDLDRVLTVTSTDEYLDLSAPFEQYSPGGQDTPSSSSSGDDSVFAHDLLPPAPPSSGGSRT
Protocol: as §1, §2

Sequence of wild-type un-phosphorylated FGFR2 (P21802 22-821): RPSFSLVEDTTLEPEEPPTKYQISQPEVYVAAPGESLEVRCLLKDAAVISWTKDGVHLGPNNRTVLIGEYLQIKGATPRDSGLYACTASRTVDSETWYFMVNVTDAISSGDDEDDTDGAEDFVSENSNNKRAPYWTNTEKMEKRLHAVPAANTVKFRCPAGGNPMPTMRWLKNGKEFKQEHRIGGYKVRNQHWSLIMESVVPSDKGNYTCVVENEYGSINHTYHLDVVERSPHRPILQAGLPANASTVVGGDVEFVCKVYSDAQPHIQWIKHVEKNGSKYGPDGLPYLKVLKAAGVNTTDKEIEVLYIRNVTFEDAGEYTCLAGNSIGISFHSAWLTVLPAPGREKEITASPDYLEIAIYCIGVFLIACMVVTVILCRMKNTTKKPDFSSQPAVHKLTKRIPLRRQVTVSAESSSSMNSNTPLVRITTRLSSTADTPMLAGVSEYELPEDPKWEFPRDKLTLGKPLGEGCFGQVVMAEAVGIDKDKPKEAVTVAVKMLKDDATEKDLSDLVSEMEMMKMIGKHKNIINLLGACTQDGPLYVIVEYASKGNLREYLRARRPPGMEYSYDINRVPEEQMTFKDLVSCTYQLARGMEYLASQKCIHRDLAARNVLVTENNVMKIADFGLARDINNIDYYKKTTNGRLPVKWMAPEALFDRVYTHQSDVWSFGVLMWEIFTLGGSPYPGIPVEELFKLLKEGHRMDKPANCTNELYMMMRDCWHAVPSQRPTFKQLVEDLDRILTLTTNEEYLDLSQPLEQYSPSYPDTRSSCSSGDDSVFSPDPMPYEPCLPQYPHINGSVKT

SMILES	IC50 [1] [µM]	IC50 [2] [µM]	IC50 [3] [µM]
CNC(=O)c1cncc(-c2cnc3cc(-c4cnn(C)c4)c(OC)nn23)c1 [Example 4, 5-(6-Methoxy-7-(1-methyl-1H-pyrazol-4-yl)imidazo[1,2-b]pyridazin-3-yl)-N-methylnicotinamide]	0.1 to 0.4	–	–
CNC(=O)c1cc(F)c(F)c(-c2cnc3cc(-c4cnn(C)c4)c(O[C@H]4CCNC4)nn23)c1 [Example 17, (S)-3,4-Difluoro-N-methyl-5-(7-(1-methyl-1H-pyrazol-4-yl)-6-(pyrrolidin-3-yloxy)imidazo[1,2-b]pyridazin-3-yl)benzamide]	–	≥ 0.4	0.01 to 0.1
CNC(=O)c1cc(F)c(F)c(-c2cnc3cc(-c4ccc(C)nc4)c(O[C@H]4CCOC4)nn23)c1 [Example 21, (S)-3,4-Difluoro-N-methyl-5-(7-(6-methylpyridin-3-yl)-6-((tetrahydrofuran-3-yl)oxy)imidazo[1,2-b]pyridazin-3-yl)benzamide]	0.01 to 0.1	0.1 to 0.4	< 0.01
CNC(=O)c1cc(-c2cnc3cc(-c4cnn(C)c4)c(O[C@H]4CCOC4)nn23)c(F)c(N(C)C)c1 [Example 37, (S)-3-(Dimethylamino)-4-fluoro-N-methyl-5-(7-(1-methyl-1H-pyrazol-4-yl)-6-((tetrahydrofuran-3-yl)oxy)imidazo[1,2-b]pyridazin-3-yl)benzamide]	–	0.1 to 0.4	0.01 to 0.1
Cc1cc(-c2cn(C)nn2)cc(-c2cnc3cc(-c4cnn(C)c4)c(O[C@H]4CCOC4)nn23)c1F [Example 39, (S)-3-(2-Fluoro-3-methyl-5-(1-methyl-1H-1,2,3-triazol-4-yl)phenyl)-7-(1-methyl-1H-pyrazol-4-yl)-6-((tetrahydrofuran-3-yl)oxy)imidazo[1,2-b]pyridazine]	–	≥ 0.4	0.1 to 0.4
CNC(=O)c1cc(-c2cnc3cc(-c4cnn(C)c4)c(O[C@H]4CCOC4)nn23)c(F)c(C(F)F)c1 [Example 41, (S)-3-(Difluoromethyl)-4-fluoro-N-methyl-5-(7-(1-methyl-1H-pyrazol-4-yl)-6-((tetrahydrofuran-3-yl)oxy)imidazo[1,2-b]pyridazin-3-yl)benzamide]	< 0.01	–	–
CNC(=O)c1cc(C)c(F)c(-c2cnc3cc(-c4cnn(C)c4)c(O[C@H]4CCOC4)nn23)c1 [Example 42, (S)-4-Fluoro-N,3-dimethyl-5-(7-(1-methyl-1H-pyrazol-4-yl)-6-((tetrahydrofuran-3-yl)oxy)imidazo[1,2-b]pyridazin-3-yl)benzamide]	< 0.01	–	–
CNC(=O)c1cc(F)c(F)c(-c2cnc3cc(-c4cnn(C)c4)c(O[C@H]4CCOC4)nn23)c1 [Example 43, (S)-3,4-Difluoro-N-methyl-5-(7-(1-methyl-1H-pyrazol-4-yl)-6-((tetrahydrofuran-3-yl)oxy)imidazo[1,2-b]pyridazin-3-yl)benzamide]	< 0.01	–	–
CNC(=O)c1cncc(-c2cnc3cc(-c4cnn(C)c4)c(OCC(F)F)nn23)c1 [Example 50, 5-(6-(2,2-Difluoroethoxy)-7-(1-methyl-1H-pyrazol-4-yl)imidazo[1,2-b]pyridazin-3-yl)-N-methylnicotinamide]	–	≥ 0.4	0.01 to 0.1
CNC(=O)c1cccc(-c2cnc3cc(-c4cnn(C)c4)c(OC4CC(C#N)C4)nn23)c1 (stereo not shown) [Example 56, 3-(6-(3-Cyanocyclobutoxy)-7-(1-methyl-1H-pyrazol-4-yl)imidazo[1,2-b]pyridazin-3-yl)-N-methylbenzamide]	–	0.1 to 0.4	0.1 to 0.4
Cn1cc(-c2cc3ncc(-c4cccc(-n5cccn5)c4)n3nc2OC2COC2)cn1 [Example 61, 3-(3-(1H-Pyrazol-1-yl)phenyl)-7-(1-methyl-1H-pyrazol-4-yl)-6-(oxetan-3-yloxy)imidazo[1,2-b]pyridazine]	–	0.01 to 0.1	0.01 to 0.1
CNC(=O)c1cccc(-c2cnc3cc(-c4cnn(C)c4)c(O[C@H]4CCOC4)nn23)c1 [Example 63, (S)-N-Methyl-3-(7-(1-methyl-1H-pyrazol-4-yl)-6-((tetrahydrofuran-3-yl)oxy)imidazo[1,2-b]pyridazin-3-yl)benzamide]	< 0.01	–	–
Cn1cc(-c2cc3ncc(-c4ccc5cnn(C)c5c4)n3nc2OC2CCOC2)cn1 (stereo not shown) [Example 65, 3-(1-Methyl-1H-indazol-6-yl)-7-(1-methyl-1H-pyrazol-4-yl)-6-((tetrahydrofuran-3-yl)oxy)imidazo[1,2-b]pyridazine]	–	≥ 0.4	0.1 to 0.4
Cn1cc(-c2cc3ncc(-c4ccc5oncc5c4)n3nc2OC2CCOC2)cn1 (stereo not shown) [Example 66, 5-(7-(1-Methyl-1H-pyrazol-4-yl)-6-((tetrahydrofuran-3-yl)oxy)imidazo[1,2-b]pyridazin-3-yl)benzo[d]isoxazole]	–	0.1 to 0.4	0.01 to 0.1

The next lines start with the values.

IC50 [1] [µM]	IC50 [2] [µM]	IC50 [3] [µM]	SMILES
–	0.01 to 0.1	< 0.01	CNC(=O)c1cc(F)c(F)c(-c2cnc3cc(-c4cnn(C)c4)c(O[C@H]4CCNC4=O)nn23)c1 [Example 18, (S)-3,4-Difluoro-N-methyl-5-(7-(1-methyl-1H-pyrazol-4-yl)-6-((2-oxopyrrolidin-3-yl)oxy)imidazo[1,2-b]pyridazin-3-yl)benzamide]
< 0.01	0.01 to 0.1	< 0.01	CNC(=O)c1cc(F)c(F)c(-c2cnc3cc(-c4cnn(C)c4)c(N[C@H]4CCOC4)nn23)c1 [Example 19, (S)-3,4-Difluoro-N-methyl-5-(7-(1-methyl-1H-pyrazol-4-yl)-6-((tetrahydrofuran-3-yl)amino)imidazo[1,2-b]pyridazin-3-yl)benzamide]
< 0.01	0.01 to 0.1	< 0.01	CNC(=O)c1cc(F)c(F)c(-c2cnc3cc(-c4cnn(C)c4)c(OCCOC)nn23)c1 [Example 20, 3,4-Difluoro-5-(6-(2-methoxyethoxy)-7-(1-methyl-1H-pyrazol-4-yl)imidazo[1,2-b]pyridazin-3-yl)-N-methylbenzamide]
< 0.01	0.01 to 0.1	< 0.01	CNC(=O)c1cc(F)c(F)c(-c2cnc3cc(-c4cnn(C5COC5)c4)c(O[C@H]4CCOC4)nn23)c1 [Example 23, (S)-3,4-Difluoro-N-methyl-5-(7-(1-(oxetan-3-yl)-1H-pyrazol-4-yl)-6-((tetrahydrofuran-3-yl)oxy)imidazo[1,2-b]pyridazin-3-yl)benzamide]
< 0.01	< 0.01	< 0.01	CNC(=O)c1cc(F)c(F)c(-c2cnc3cc(-c4cnn(C(C)C)c4)c(O[C@H]4CCOC4)nn23)c1 [Example 24, (S)-3,4-Difluoro-5-(7-(1-isopropyl-1H-pyrazol-4-yl)-6-((tetrahydrofuran-3-yl)oxy)imidazo[1,2-b]pyridazin-3-yl)-N-methylbenzamide]
< 0.01	< 0.01	< 0.01	CNC(=O)c1cc(F)c(F)c(-c2cnc3cc(-c4cnn(C5CCC5)c4)c(O[C@H]4CCOC4)nn23)c1 [Example 25, (S)-3-(7-(1-Cyclobutyl-1H-pyrazol-4-yl)-6-((tetrahydrofuran-3-yl)oxy)imidazo[1,2-b]pyridazin-3-yl)-4,5-difluoro-N-methylbenzamide]
–	0.01 to 0.1	< 0.01	CNC(=O)c1cc(-c2cnc3cc(-c4cnn(C)c4)c(O[C@H]4CCOC4)nn23)c(F)c(C2CC2)c1 [Example 38, (S)-3-Cyclopropyl-4-fluoro-N-methyl-5-(7-(1-methyl-1H-pyrazol-4-yl)-6-((tetrahydrofuran-3-yl)oxy)imidazo[1,2-b]pyridazin-3-yl)benzamide]
